Where two headings read alike, the source gives them in different places.
Key:
[1] = test system: spores of bacillus subtilis; conditions: alcohol at concentrations of about 20% (or higher); cited from earlier work
[2] = properties of commercial hydrogen peroxide; cited from earlier work
[3] = properties of commercial hydrogen peroxide; cited from earlier work; remark: listed apart in the source
[4] = properties of commercial hydrogen peroxide; cited from earlier work; remark: listed apart in the source
[5] = properties of commercial hydrogen peroxide; cited from earlier work; remark: listed apart in the source
[6] = Specific gravity of the solutions at 20° C.; type: physicochemical
Experimental: (§1) The above listed components were weighed separately, taking particular care with the concentrated sulfuric acid, which must be handled under a hood and with protection gloves. The components were mixed in the above listed sequence, making sure that the component being dealt with was perfectly mixed before adding the next one. After addition of the components, the mixture was stirred for 15 minutes, left to rest for 10 minutes and a sample was retrieved for checking its chemical and physical properties.
(§2) The following chemical-physical properties were measured: […]

[7] = pH (10% w/w in deionized water) at 20° C.; type: physicochemical
Experimental: as §1, §2

Miscibility in water = type: physicochemical
Experimental: as §1, §2

[8] = cited from earlier work
[9] = test system: Gram + and Gram − bacteria, fungi and yeasts; conditions: cited from earlier work
Enterovirus = conditions: cited from earlier work
Poliovirus = conditions: cited from earlier work
Bacterial spores = conditions: cited from earlier work
[10] = cited from earlier work; remark: listed apart in the source

For `CCO` [Ethyl alcohol], the “effect with PAA as regards its germicidal activity” value [1] is given as “synergistic effect”.
For `OO` [Hydrogen peroxide, 35% w/w, Hydrogen peroxide], the “Specific gravity at 20° C.” value [2] is given as 1.132 g/mL, the “pH (10% w/w in deionized water) at 20° C.” value [3] is given as 2.00-3.00 U of pH and the Miscibility in water [4] is given as “full”. The “Vapor pressure at 20° C.” value [5] was 17-20 mbar.
In the case of `OO` [Hydrogen peroxide, 50% w/w, Hydrogen peroxide], the “Specific gravity at 20° C.” value [6] is reported as 1.280 g/mL, the “pH (10% w/w in deionized water) at 20° C.” value [7] is reported as 2.00-3.00 U of pH and the Miscibility in water (Miscibility in water) is reported as “full”.
In the case of `CC(C)O` [Isopropyl alcohol], the “effect with PAA as regards its germicidal activity” value [1] is listed as “synergistic effect”.
For `CC(=O)OO` [PAA, peracetic acid], the “loss of active ingredient per month” value ([8]; 40% w/w solution, per month) is given as 1 to 2%, the Contact times ([9]; 100 ppm PAA) is given as no more than 5 min and the “Effect on medical and surgical instruments” value ([9]; 100 ppm PAA) is given as “Low-level disinfection”. For the same compound, the Contact times ([9]; in the presence of organic material, 200-500 ppm PAA) was no more than 5 min, the “Effect on medical and surgical instruments” value ([9]; in the presence of organic material) was “Low-level disinfection” and the “Ppm (%) of PAA” value ([9]; inactivated and killed in the presence of organic material) was 200-500 Ppm. The “Ppm (%) of PAA” value ([9]; microorganisms are inactivated and killed) was 100 (0.01%) Ppm, the Contact times (Enterovirus; 2000 ppm PAA) was 10 to 30 min and the “Ppm (%) of PAA” value (Enterovirus) was 2000 (0.2%) Ppm. The Contact times (Poliovirus) was 15 min, the “Ppm (%) of PAA” value (Poliovirus) was 1500-2250 Ppm and the “Effect on medical and surgical instruments” value (Bacterial spores) was “Sterilization”. For the same compound, the “Ppm (%) of PAA” value (Bacterial spores) was 500-30,000 Ppm, the Contact times (Bacterial spores; lower end of the 500-30,000 ppm range) was 15 min and the Contact times (Bacterial spores; upper end of the 500-30,000 ppm range) was 0.25 min. For the same compound, the solubility in water [10] was “infinite”.
For `OO` [hydrogen peroxide], the “loss of active ingredient per year” value ([8]; hydrogen peroxide (30 to 90%), per year) is given as “less than 1%”.

Source: patent publication US6514509B2, “Method for production on the spot of a disinfectant peracetic acid system” (Farmec S.n.c. di Tabasso Renato & C., priority 1998, dated 2003)
